Test results reported in patent publication US10144742B2 (Millennium Pharmaceuticals, Inc., priority 2014, dated 2018).
pIC50: −log10 of the molar value. Where two headings read alike, the source gives them in different places.

Key:
[1] = target: hNAMPT protein (Homo sapiens (Human), UniProt P43490); assay: NAMPT enzyme assay (TR-FRET/HTRF, BodiPY ligand, anti 6His-Tb); format: binding; conditions: for pIC50: read-out: IC50; for inhibition at 1 µM: read-out: Percent Inhibition
Method in brief: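 TR-FRET binding assay in which His-tagged human NAMPT with anti-6His-Tb is displaced by compound from a BodiPY ligand, incubated 1 h at rt in the dark. Excitation was at 320 nm, with the 520/486 nm emission ratio read. IC50 was fitted from inhibition relative to DMSO controls.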

[2] = test system: PC3 cells; assay: PC3 growth inhibition (Cell-titer glo, 72 hours); format: cell-based; conditions: Homo sapiens, PC-3; compound concentration 1.667 μM; PC3 cells, 72 hours, Cell-titer glo; read-out: Percent Inhibition (PC3 growth inhibition)
Method in brief: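 PC3 cells in RPMI1640 seeded overnight at 37 °C, 5% CO2, then exposed to compound diluted in AIM serum-free medium for 72 h. Viability by CellTiter-Glo luminescence vs DMSO controls; single-concentration % remaining viability (1 μM or 1.667 μM), or GI50/LD50 from curves.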

[3] = NAMPT inhibition at compound concentration 1 μM
[4] = NAMPT inhibition, IC50 range class

Chain of hNAMPT protein (P43490 whole entry): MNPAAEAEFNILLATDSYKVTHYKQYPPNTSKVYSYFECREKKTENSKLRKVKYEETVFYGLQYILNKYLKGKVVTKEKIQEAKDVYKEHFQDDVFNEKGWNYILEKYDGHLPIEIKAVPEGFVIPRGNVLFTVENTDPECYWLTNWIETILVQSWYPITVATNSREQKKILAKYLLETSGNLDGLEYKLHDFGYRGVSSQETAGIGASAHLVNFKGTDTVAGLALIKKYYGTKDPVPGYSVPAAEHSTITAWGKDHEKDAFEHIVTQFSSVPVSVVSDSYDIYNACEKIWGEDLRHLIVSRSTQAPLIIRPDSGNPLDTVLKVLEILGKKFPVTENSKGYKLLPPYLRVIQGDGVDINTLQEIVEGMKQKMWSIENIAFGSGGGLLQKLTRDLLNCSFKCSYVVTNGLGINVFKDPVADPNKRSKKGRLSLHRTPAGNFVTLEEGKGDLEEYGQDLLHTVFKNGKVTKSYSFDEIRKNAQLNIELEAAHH

Row | Compound | pIC50 ([1]; NAMPT IC50 range class) | inhibition at 1 µM ([1]; compound concentration 1 μM) [%] | inhibition at 1.667 µM [2] [%] | inhibition at 1 µM [1, 3] [%] | pIC50 [1, 4]
1 | C[C@@H]1CN(c2nc3ccc(C(=O)NCCCc4ncc[nH]4)cc3nc2-c2ccc(F)cc2)C[C@H](C)O1 [Compound I-383, 2-[cis-2,6-dimethylmorpholin-4-yl]-3-(4-fluorophenyl)-N-[3-(1H-imidazol-2-yl)propyl]quinoxaline-6-carboxamide] | > 7.00 | 99 | 2 |  | 
2 | CS(=O)(=O)c1cccc(-c2nc3cc(C(=O)NCCCc4ncc[nH]4)ccc3nc2-c2ccc(F)cc2)c1 [Compound I-384, 2-(4-fluorophenyl)-N-[3-(1H-imidazol-2-yl)propyl]-3-[3-(methylsulfonyl)phenyl]quinoxaline-6-carboxamide] | 6.30 to 7.00 | 84 | 2 |  | 
3 | CC(C)Oc1nc2ccc(C(=O)NCCCc3ncc[nH]3)cc2nc1-c1cccs1 [Compound I-385, N-[3-(1H-imidazol-2-yl)propyl]-2-isopropoxy-3-(2-thienyl)quinoxaline-6-carboxamide] | > 7.00 | > 99 | 2 |  | 
4 | Cn1ccc2cc(-c3nc4cc(C(=O)NCCCc5ncc[nH]5)ccc4nc3-c3ccc(F)cc3)ccc21 [Compound I-386, 2-(4-fluorophenyl)-N-[3-(1H-imidazol-2-yl)propyl]-3-(1-methyl-1H-indol-5-yl)quinoxaline-6-carboxamide] | 6.30 to 7.00 | 90 | 2 |  | 
5 | O=C(NCCCc1nnc[nH]1)c1ccc2nc(-c3ccc(F)cc3)c(-c3ccc(F)cc3)nc2c1 [Compound I-387, 2,3-bis(4-fluorophenyl)-N-[3-(4H-1,2,4-triazol-3-yl)propyl]quinoxaline-6-carboxamide] | 6.00 to 6.30 | 61 | 5 |  | 
6 | N#Cc1cc(-c2nc3cc(C(=O)NCCCc4ncc[nH]4)ccc3nc2-c2ccc(F)cc2)ccc1F [Compound I-388, 3-(3-cyano-4-fluorophenyl)-2-(4-fluorophenyl)-N-[3-(1H-imidazol-2-yl)propyl]quinoxaline-6-carboxamide] | 6.30 to 7.00 | 81 | 3 |  | 
7 | O=C(NCCCc1ncc[nH]1)c1ccc2nc(-n3ccc4cnccc43)c(-c3ccc(F)cc3)nc2c1 [Compound I-389, 3-(4-fluorophenyl)-N-[3-(1H-imidazol-2-yl)propyl]-2-(1H-pyrrolo[3,2-c]pyridin-1-yl)quinoxaline-6-carboxamide] | > 7.00 | 93 | 2 |  | 
8 | O=C(NCCCc1ncc[nH]1)c1ccc2nc(OCCc3cnoc3)c(-c3ccc(F)cc3)nc2c1 [Compound I-390, 3-(4-fluorophenyl)-N-[3-(1H-imidazol-2-yl)propyl]-2-[2-(isoxazol-4-yl)ethoxy]quinoxaline-6-carboxamide] | > 7.00 | 99 | 2 |  | 
9 | COc1nccc(-c2nc3cc(C(=O)NCCCc4ncc[nH]4)ccc3nc2-c2ccc(F)cc2)c1F [Compound I-391, 3-(3-fluoro-2-methoxypyridin-4-yl)-2-(4-fluorophenyl)-N-[3-(1H-imidazol-2-yl)propyl]quinoxaline-6-carboxamide] | 6.30 to 7.00 | 83 | 3 |  | 
10 | COc1cc(-c2nc3cc(C(=O)NCCCc4ncc[nH]4)ccc3nc2OC(C)C)c(F)cn1 [Compound I-392, 3-(5-fluoro-2-methoxypyridin-4-yl)-N-[3-(1H-imidazol-2-yl)propyl]-2-isopropoxyquinoxaline-6-carboxamide] | 6.30 to 7.00 | 91 | 1 |  | 
11 | N#Cc1ccc(Cl)c(-c2nc3cc(C(=O)NCCCc4ncc[nH]4)ccc3nc2-c2ccc(F)cc2)c1 [Compound I-393, 3-(2-chloro-5-cyanophenyl)-2-(4-fluorophenyl)-N-[3-(1H-imidazol-2-yl)propyl]quinoxaline-6-carboxamide] | > 7.00 | 98 | 2 |  | 
12 | Cc1cncc(-c2nc3cc(C(=O)NCCCc4ncc[nH]4)ccc3nc2-c2ccc(F)cc2)c1 [Compound I-394, 2-(4-fluorophenyl)-N-[3-(1H-imidazol-2-yl)propyl]-3-(5-methylpyridin-3-yl)quinoxaline-6-carboxamide] | 6.30 to 7.00 | 74 | 3 |  | 
13 | Cc1cccc(-c2nc3cc(C(=O)NCCCc4ncc[nH]4)ccc3nc2-c2ccc(F)cc2)c1 [Compound I-395, 2-(4-fluorophenyl)-N-[3-(1H-imidazol-2-yl)propyl]-3-(3-methylphenyl)quinoxaline-6-carboxamide] |  |  | 2 | 83 | 6.30 to 7.00
14 | O=C(NCCCc1ncc[nH]1)c1ccc2nc(OCc3ccccn3)c(-c3ccc(F)cc3)nc2c1 [Compound I-396, 3-(4-fluorophenyl)-N-[3-(1H-imidazol-2-yl)propyl]-2-(pyridin-2-ylmethoxy)quinoxaline-6-carboxamide] |  |  | 2 | 98 | > 7.00
15 | O=C(NCCCc1ncc[nH]1)c1ccc2nc(-c3ccc(F)cc3)c(-c3ccc(Cl)c(Cl)c3)nc2c1 [Compound I-397, 3-(3,4-dichlorophenyl)-2-(4-fluorophenyl)-N-[3-(1H-imidazol-2-yl)propyl]quinoxaline-6-carboxamide] |  |  | 2 | 97 | > 7.00
16 | COc1cccc(-c2nc3cc(C(=O)NCCCc4ncc[nH]4)ccc3nc2-c2ccc(F)cc2)c1F [Compound I-398, 3-(2-fluoro-3-methoxyphenyl)-2-(4-fluorophenyl)-N-[3-(1H-imidazol-2-yl)propyl]quinoxaline-6-carboxamide] |  |  | 2 | 93 | > 7.00
17 | O=C(NCCCc1ncc[nH]1)c1ccc2nc(-c3ccc(F)cc3)c(-c3cc(F)ccc3Cl)nc2c1 [Compound I-399, 3-(2-chloro-5-fluorophenyl)-2-(4-fluorophenyl)-N-[3-(1H-imidazol-2-yl)propyl]quinoxaline-6-carboxamide] |  |  | 1 | 95 | > 7.00
18 | O=C(NCCCc1ncc[nH]1)c1ccc2nc(OC3CCCC3)c(-c3ccc(F)cc3)nc2c1 [Compound I-400, 2-(cyclopentyloxy)-3-(4-fluorophenyl)-N-[3-(1H-imidazol-2-yl)propyl]quinoxaline-6-carboxamide] |  |  | 2 | 97 | > 7.00
19 | CS(=O)(=O)CCOc1nc2ccc(C(=O)NCCCc3ncc[nH]3)cc2nc1-c1ccc(F)cc1 [Compound I-401, 3-(4-fluorophenyl)-N-[3-(1H-imidazol-2-yl)propyl]-2-[2-(methylsulfonyl)ethoxy]quinoxaline-6-carboxamide] |  |  | 99 | 69 | 6.30 to 7.00
20 | CCOc1nc2ccc(C(=O)NCCCc3ncc[nH]3)cc2nc1-c1ccc(Cl)cc1 [Compound I-402, 3-(4-chlorophenyl)-2-ethoxy-N-[3-(1H-imidazol-2-yl)propyl]quinoxaline-6-carboxamide] |  |  | 2 | 97 | > 7.00
21 | CC(C)Oc1nc2ccc(C(=O)NCc3ccc4nccn4c3)cc2nc1-c1ccc(Cl)s1 [Compound I-403, 3-(5-chloro-2-thienyl)-N-(imidazo[1,2-a]pyridin-6-ylmethyl)-2-isopropoxyquinoxaline-6-carboxamide] |  |  | 0 | 89 | 6.30 to 7.00
22 | O=C(NCCCc1ncc[nH]1)c1ccc2nc(OC3CC4(CCN4)C3)c(-c3ccc(F)cc3)nc2c1 (stereo not drawn) [Compound I-404, 2-(1-azaspiro[3.3]hept-6-yloxy)-3-(4-fluorophenyl)-N-[3-(1H-imidazol-2-yl)propyl]quinoxaline-6-carboxamide] |  |  | 1 | > 99 | > 7.00
23 | O=C(NCCCc1ncc[nH]1)c1ccc2nc(CN3CCOCC3)c(-c3ccc(F)cc3)nc2c1 [Compound I-405, 3-(4-fluorophenyl)-N-[3-(1H-imidazol-2-yl)propyl]-2-(morpholin-4-ylmethyl)quinoxaline-6-carboxamide] |  |  | 3 | 72 | 6.30 to 7.00
24 | O=C(NCCCc1ncc[nH]1)c1ccc2nc(OCC3CCOCC3)c(-c3ccc(F)cc3)nc2c1 [Compound I-406, 3-(4-fluorophenyl)-N-[3-(1H-imidazol-2-yl)propyl]-2-(tetrahydro-2H-pyran-4-ylmethoxy)quinoxaline-6-carboxamide] |  |  | 2 | > 99 | > 7.00
25 | N#CC1(COc2nc3ccc(C(=O)NCCCc4ncc[nH]4)cc3nc2-c2ccc(F)cc2)CCC1 [Compound I-407, 2-[(1-cyanocyclobutyl)methoxy]-3-(4-fluorophenyl)-N-[3-(1H-imidazol-2-yl)propyl]quinoxaline-6-carboxamide] |  |  | 2 | > 99 | > 7.00
26 | O=C(NCc1cn2cccnc2n1)c1ccc2nc(-c3ccc(F)cc3)c(-c3ccc(F)cc3)nc2c1 [Compound I-408, 2,3-bis(4-fluorophenyl)-N-(imidazo[1,2-a]pyrimidin-2-ylmethyl)quinoxaline-6-carboxamide] |  |  | > 99 | 85 | 6.30 to 7.00
